This note sets out measurements from patent publication US9919998B2, “Antibacterial agents: Nα-aroyl-N-aryl-phenylalaninamides” (priority 2014, dated 2018).

Values after ≈ are worked out from the molar mass of the structure shown. Bounds are passed on as bounds.

Holding throughout (type): cell-based
Series [1] relates to Vero E6 ATCC CRL1586 cells. The experiment in a line: Mammalian-cell cytotoxicity, minimal cytotoxic concentration (CellTiter96). The method, then:
Minimal cytotoxic concentrations (MCCs) against mammalian cells in culture were determined using Vero E6 ATCC CRL1586 cells and the CellTiter96 assay kit (Promega, Inc.). […]

In series [2] the test system is Mycobacterium tuberculosis H37Rv. The experiment in a line: Microplate Alamar Blue assay (MABA) MIC, M. tuberculosis. To be noted: read-out: MIC Mycobacterium tuberculosis H37Rv. The source says: (§1) Minimal inhibitory concentrations (MICs) in Mycobacterium tuberculosis H37Rv and Mycobacterium avium ATCC 25291 were quantified using microplate Alamar Blue assays as described (MABA; [Collins, L. & Franzblau, S. (1997) Microplate Alamar Blue assay versus BACTEC 460 system for high-throughput screening of compounds against Mycobacterium tuberculosis and Mycobacterium avium. Antimicrob. Agents Chemother. 41, 1004-1009]).

Series [3] concerns Mycobacterium avium ATCC 25291. Briefly: Microplate Alamar Blue assay (MABA) MIC, M. avium. To be noted: ATCC25291, M. avium ATCC 25291.
Text: as §1

Series [4] concerns Mycobacterium smegmatis ATCC 19420. The experiment in a line: Broth microdilution MIC, M. smegmatis. The settings on record: Mycolicibacterium smegmatis, ATCC19420, M. smegmatis ATCC 19420; read-out: MIC Mycobacterium smegmatis ATCC 19420. The source says:
MICs in Mycobacterium smegmatis ATCC 19420 and Mycobacterium smegmatis ATCC 19420 derivatives were quantified using broth microdilution assays as described [Clinical and Laboratory Standards Institute (CLSI/NCCLS) (2009) Methods for Dilution Antimicrobial Susceptibility Tests for Bacteria That Grow Aerobically; Approved Standard, Eighth Edition. CLIS Document M07-A8 (CLIS, Wayne Pa.)].
Background: In broth dilution the organism is exposed to a series of concentrations in liquid medium.

In general, MIC refers to the lowest concentration that inhibits growth of the organism. For the compound `O=C(NC(Cc1ccccc1)C(=O)Nc1cc(F)ccc1N1CCOCC1)c1ccccc1` (stereo not drawn) [IX-157, N-(1-((5-fluoro-2-morpholinophenyl)amino)-1-oxo-3-phenylpropan-2-yl)benzamide], the “MCC mammalian cells Vero E6 ATCC CRL1586” value in series [1] turned out to be 48 µg/mL. Besides, the values for the MIC in series [2], in series [3] and in series [4] were 0.78 µg/mL (≈ 1.74 µM), 1.56 µg/mL (≈ 3.49 µM) and 0.047 µg/mL (≈ 0.105 µM), respectively.

Turning to `O=C(NC(Cc1ccccc1)C(=O)Nc1cc(F)ccc1N1CCOCC1)c1ccccc1F` (stereo not drawn) [IX-158, 2-fluoro-N-(1-((5-fluoro-2-morpholinophenyl)amino)-1-oxo-3-phenyl-propan-2-yl)benzamide], the “MCC mammalian cells Vero E6 ATCC CRL1586” value in series [1] is more than 100 µg/mL. In addition, the MIC worked out at 0.78 µg/mL (≈ 1.68 µM) in series [2], 0.78 µg/mL (≈ 1.68 µM) in series [3] and 0.097 µg/mL (≈ 0.208 µM) in series [4].

In the case of `Cc1ccccc1C(=O)NC(Cc1ccccc1)C(=O)Nc1cc(F)ccc1N1CCOCC1` (stereo not drawn) [IX-159, N-(1-((5-fluoro-2-morpholinophenyl)amino)-1-oxo-3-phenylpropan-2-yl)-2-methylbenzamide], in series [1], the “MCC mammalian cells Vero E6 ATCC CRL1586” value turned out to be 10 µg/mL. Further, the MIC was found to be 0.39 µg/mL (≈ 0.845 µM) in series [2], 0.39 µg/mL (≈ 0.845 µM) in series [3] and 0.047 µg/mL (≈ 0.102 µM) in series [4].

Turning to `O=C(NC(Cc1ccccc1)C(=O)Nc1cc(F)ccc1N1CCOCC1)c1cccs1` (stereo not drawn) [IX-160, N-(1-((5-fluoro-2-morpholinophenyl)amino)-1-oxo-3-phenylpropan-2-yl)thiophene-2-carboxamide], the “MCC mammalian cells Vero E6 ATCC CRL1586” value in series [1] was found to be 30 µg/mL. Besides, the MIC amounted to 0.78 µg/mL (≈ 1.72 µM) in series [2], 0.78 µg/mL (≈ 1.72 µM) in series [3] and 0.097 µg/mL (≈ 0.214 µM) in series [4].

For `O=C(NC(Cc1ccc(O)cc1)C(=O)Nc1cccc2c1OCCO2)c1ccccc1Br` (stereo not drawn) [IX-176, 2-bromo-N-(1-((2,3-dihydrobenzo[b][1,4]dioxin-5-yl)amino)-3-(4-hydroxyphenyl)-1-oxopropan-2-yl)benzamide], the “MCC mammalian cells Vero E6 ATCC CRL1586” value in series [1] amounted to 100.0 µg/mL. Also, the MIC in series [2] was found to be 6.25 µg/mL (≈ 12.6 µM); in series [3], 6.25 µg/mL (≈ 12.6 µM); in series [4], 3.1 µg/mL (≈ 6.23 µM).

`O=C(NC(Cc1ccccc1)C(=O)Nc1cc(F)ccc1OCF)c1ccccc1F` (stereo not drawn) [IX-177, 2-fluoro-N-(1-((5-fluoro-2-(fluoromethoxy)phenyl)amino)-1-oxo-3-phenylpropan-2-yl)benzamide]: in series [1], the “MCC mammalian cells Vero E6 ATCC CRL1586” value was more than 100 µg/mL. For the same compound, the values for the MIC in series [2], in series [3] and in series [4] were 0.39 µg/mL (≈ 0.91 µM), 0.78 µg/mL (≈ 1.82 µM) and 0.39 µg/mL (≈ 0.91 µM), respectively.

On to `CC(=O)Oc1ccc(CC(NC(=O)c2ccccc2F)C(=O)Nc2ccccc2N2CCOCC2)cc1` (stereo not drawn) [IX-180, 4-(2-(2-fluorobenzamido)-3-((2-morpholinophenyl)amino)-3-oxopropyl)phenyl acetate], for which the “MCC mammalian cells Vero E6 ATCC CRL1586” value in series [1] came out at 91 µg/mL. For the same compound, the results for the MIC in series [2], in series [3] and in series [4] were 1.56 µg/mL, 6.25 µg/mL and 0.097 µg/mL, respectively.

For the compound `CC(=O)Oc1ccc(CC(NC(=O)c2ccccc2C)C(=O)Nc2ccccc2N2CCOCC2)cc1` (stereo not drawn) [IX-181, 4-(2-(2-methylbenzamido)-3-((2-morpholinophenyl)amino)-3-oxopropyl)phenyl acetate], in series [1], the “MCC mammalian cells Vero E6 ATCC CRL1586” value was 84 µg/mL. Also, the figures for the MIC in series [2], in series [3] and in series [4] were 0.78 µg/mL, 3.12 µg/mL and 0.097 µg/mL, respectively.

Turning to `CC(=O)Oc1ccc(CC(NC(=O)c2cccs2)C(=O)Nc2ccccc2N2CCOCC2)cc1` (stereo not drawn) [IX-182, 4-(3-((2-morpholinophenyl)amino)-3-oxo-2-(thiophene-2-carbox-amido)propyl)phenyl acetate], the “MCC mammalian cells Vero E6 ATCC CRL1586” value in series [1] was found to be 99 µg/mL. The MIC is 0.78 µg/mL in series [2], 3.12 µg/mL in series [3] and 0.097 µg/mL in series [4].

Turning to `O=C(NC(Cc1ccc(O)cc1)C(=O)Nc1ccccc1N1CCOCC1)c1cccs1` (stereo not drawn) [IX-183, N-(3-(4-hydroxyphenyl)-1-((2-morpholinophenyl)amino)-1-oxopropan-2-yl)thiophene-2-carboxamide], in series [1], the “MCC mammalian cells Vero E6 ATCC CRL1586” value was more than 100 µg/mL. Moreover, the values for the MIC in series [2], in series [3] and in series [4] were 1.56 µg/mL (≈ 3.45 µM), 6.25 µg/mL (≈ 13.8 µM) and 0.097 µg/mL (≈ 0.215 µM), respectively.

For the compound `Cc1ccc(F)cc1NC(=O)C(Cc1ccc(O)cc1)NC(=O)c1ccccc1F` (stereo not drawn) [IX-184, 2-fluoro-N-(1-((5-fluoro-2-methylphenyl)amino)-3-(4-hydroxy-phenyl)-1-oxopropan-2-yl)benzamide], the “MCC mammalian cells Vero E6 ATCC CRL1586” value in series [1] stood at 77 µg/mL. For the same compound, the MIC was 1.56 µg/mL (≈ 3.8 µM) in series [2], 3.12 µg/mL (≈ 7.61 µM) in series [3] and 0.39 µg/mL (≈ 0.95 µM) in series [4].

In the case of `Cc1ccc(F)cc1NC(=O)C(Cc1ccc(O)cc1)NC(=O)c1ccccc1C` (stereo not drawn) [IX-186, N-(1-((5-fluoro-2-methylphenyl)amino)-3-(4-hydroxyphenyl)-1-oxopropan-2-yl)-2-methylbenzamide], the “MCC mammalian cells Vero E6 ATCC CRL1586” value in series [1] was determined as 78 µg/mL. Also, the MIC is 1.56 µg/mL (≈ 3.84 µM) in series [2], 3.12 µg/mL (≈ 7.69 µM) in series [3] and 0.39 µg/mL (≈ 0.96 µM) in series [4].

Consider `Cc1ccc(F)cc1NC(=O)C(Cc1ccc(O)cc1)NC(=O)c1cccs1` (stereo not drawn) [IX-188, N-(1-((5-fluoro-2-methylphenyl)amino)-3-(4-hydroxyphenyl)-1-oxopropan-2-yl)thiophene-2-carboxamide], for which the “MCC mammalian cells Vero E6 ATCC CRL1586” value in series [1] is 48 µg/mL. In addition, the MIC in series [2] came to 1.56 µg/mL (≈ 3.92 µM); in series [3] it was 1.56 µg/mL (≈ 3.92 µM); in series [4] it was 0.097 µg/mL (≈ 0.243 µM).

As to `Cc1ccccc1C(=O)NC(Cc1ccccc1)C(=O)Nc1cccc2[nH]ncc12` (stereo not drawn) [IX-191, N-(1-((1H-indazol-4-yl)amino)-1-oxo-3-phenylpropan-2-yl)-2-methyl-benzamide], in series [1], the “MCC mammalian cells Vero E6 ATCC CRL1586” value was more than 100 µg/mL. For the same compound, the MIC in series [2] amounted to 12.5 µg/mL (≈ 31.4 µM); in series [3], 12.5 µg/mL (≈ 31.4 µM); in series [4] it was 0.39 µg/mL (≈ 0.979 µM).

As to `O=C(NC(Cc1ccccc1)C(=O)Nc1cccc2[nH]ncc12)c1cccs1` (stereo not drawn) [IX-201, N-(1-((1H-indazol-4-yl)amino)-1-oxo-3-phenylpropan-2-yl)thiophene-2-carboxamide], the “MCC mammalian cells Vero E6 ATCC CRL1586” value in series [1] is 47 µg/mL. The MIC in series [2] was 25 µg/mL (≈ 64 µM); in series [3], 12.5 µg/mL (≈ 32 µM); in series [4] it was 0.09 µg/mL (≈ 0.23 µM).

Take `COc1ccc(F)cc1NC(=O)C(Cc1ccc(O)cc1)NC(=O)c1ccccc1` (stereo not drawn) [IX-203, N-(1-((5-fluoro-2-methoxyphenyl)amino)-3-(4-hydroxyphenyl)-1-oxopropan-2-yl)benzamide]: in series [1], the “MCC mammalian cells Vero E6 ATCC CRL1586” value was more than 100 µg/mL. Moreover, the MIC in series [2] is 0.78 µg/mL (≈ 1.91 µM); in series [3] it was 0.78 µg/mL (≈ 1.91 µM); in series [4] it was 0.195 µg/mL (≈ 0.477 µM).

As for `COc1ccc(F)cc1NC(=O)C(Cc1ccc(O)cc1)NC(=O)c1ccccc1C` (stereo not drawn) [IX-205, N-(1-((5-fluoro-2-methoxyphenyl)amino)-3-(4-hydroxyphenyl)-1-oxopropan-2-yl)-2-methylbenzamide], the “MCC mammalian cells Vero E6 ATCC CRL1586” value in series [1] is 70 µg/mL. The MIC was 0.78 µg/mL (≈ 1.85 µM) in series [2], 0.78 µg/mL (≈ 1.85 µM) in series [3] and 0.39 µg/mL (≈ 0.923 µM) in series [4].

Regarding `COc1ccc(F)cc1NC(=O)C(Cc1ccc(O)cc1)NC(=O)c1cccs1` (stereo not drawn) [IX-206, N-(1-((5-fluoro-2-methoxyphenyl)amino)-3-(4-hydroxyphenyl)-1-oxopropan-2-yl)thiophene-2-carboxamide], in series [1], the “MCC mammalian cells Vero E6 ATCC CRL1586” value worked out at 70 µg/mL. Besides, the MIC amounted to 0.78 µg/mL (≈ 1.88 µM) in series [2], 0.39 µg/mL (≈ 0.941 µM) in series [3] and 0.195 µg/mL (≈ 0.47 µM) in series [4].
